One assay has as its target T1, NEDD4 (Homo sapiens, UniProt P46934).
T1 construct: HECT-domains of multiple ligases auto-ubiquitinate in in vitro assays containing both UBA1 and UbcH5b
Nature of the assay: in vitro HECT-domain auto-ubiquitination assay, NEDD4. Format: biochemical.

The target of a further assay is T2, HUWE1 (Homo sapiens, UniProt Q7Z6Z7).
T2 construct: expressed in transfected cells; host or cells: HeLa
Nature of the assay: In vivo (cellular) ubiquitination of MCL1 by ectopic HA-HUWE1 in HeLa cells. The assay is classed as cell-based. The following applies: HeLa cells transfected with MCL1, His-ubiquitin, inhibitor 16 hrs, read-out: IC50 relative MCL1 ubiquitination. From the text: HeLa cells were transfected with plasmids expressing MCL1, His-ubiquitin, and HA-HUWE1. […] After lysis, ubiquitin-modified proteins were recovered by Ni-NTA-Agarose and immunoblots of the eluates were probed with an antibody against MCL1. […] At the same time, cells were irradiated with 500 J/m^2 UVB and harvested after indicated time points. Immunoblots of the lysates were probed with antibodies recognizing either MCL1 or CDK2 as control. Quantification of the MCL1 protein levels for the according experiment is shown directly below the immunoblots. Diagrams below the immunoblots show mean protein levels ± SD (n = 5). From the data, the half-life of the MCL1 protein was determined with P-values calculated using a Student's t-test. • Effects of HUWE1 inhibition on levels of TopBP1. […] Cell lysates were fractionated in chromatin-bound and soluble non-chromatin-bound fractions. Immunoblots of the soluble fraction were incubated with indicated antibodies.
To test the efficacy of both compounds in tissue culture, we initially confirmed observations that HUWE1 ubiquitinates and degrades MCL1 in response to DNA damage (Zhong et al, [2005]). Consistent with these published data, steady-state levels of MCL1 decreased rapidly upon UV irradiation of U2OS cells and depletion of HUWE1 both enhanced steady-state levels of MCL1 and retarded the decrease upon UV irradiation (Supplementary Fig S4A). […]

T2 sequence (Q7Z6Z7 whole entry): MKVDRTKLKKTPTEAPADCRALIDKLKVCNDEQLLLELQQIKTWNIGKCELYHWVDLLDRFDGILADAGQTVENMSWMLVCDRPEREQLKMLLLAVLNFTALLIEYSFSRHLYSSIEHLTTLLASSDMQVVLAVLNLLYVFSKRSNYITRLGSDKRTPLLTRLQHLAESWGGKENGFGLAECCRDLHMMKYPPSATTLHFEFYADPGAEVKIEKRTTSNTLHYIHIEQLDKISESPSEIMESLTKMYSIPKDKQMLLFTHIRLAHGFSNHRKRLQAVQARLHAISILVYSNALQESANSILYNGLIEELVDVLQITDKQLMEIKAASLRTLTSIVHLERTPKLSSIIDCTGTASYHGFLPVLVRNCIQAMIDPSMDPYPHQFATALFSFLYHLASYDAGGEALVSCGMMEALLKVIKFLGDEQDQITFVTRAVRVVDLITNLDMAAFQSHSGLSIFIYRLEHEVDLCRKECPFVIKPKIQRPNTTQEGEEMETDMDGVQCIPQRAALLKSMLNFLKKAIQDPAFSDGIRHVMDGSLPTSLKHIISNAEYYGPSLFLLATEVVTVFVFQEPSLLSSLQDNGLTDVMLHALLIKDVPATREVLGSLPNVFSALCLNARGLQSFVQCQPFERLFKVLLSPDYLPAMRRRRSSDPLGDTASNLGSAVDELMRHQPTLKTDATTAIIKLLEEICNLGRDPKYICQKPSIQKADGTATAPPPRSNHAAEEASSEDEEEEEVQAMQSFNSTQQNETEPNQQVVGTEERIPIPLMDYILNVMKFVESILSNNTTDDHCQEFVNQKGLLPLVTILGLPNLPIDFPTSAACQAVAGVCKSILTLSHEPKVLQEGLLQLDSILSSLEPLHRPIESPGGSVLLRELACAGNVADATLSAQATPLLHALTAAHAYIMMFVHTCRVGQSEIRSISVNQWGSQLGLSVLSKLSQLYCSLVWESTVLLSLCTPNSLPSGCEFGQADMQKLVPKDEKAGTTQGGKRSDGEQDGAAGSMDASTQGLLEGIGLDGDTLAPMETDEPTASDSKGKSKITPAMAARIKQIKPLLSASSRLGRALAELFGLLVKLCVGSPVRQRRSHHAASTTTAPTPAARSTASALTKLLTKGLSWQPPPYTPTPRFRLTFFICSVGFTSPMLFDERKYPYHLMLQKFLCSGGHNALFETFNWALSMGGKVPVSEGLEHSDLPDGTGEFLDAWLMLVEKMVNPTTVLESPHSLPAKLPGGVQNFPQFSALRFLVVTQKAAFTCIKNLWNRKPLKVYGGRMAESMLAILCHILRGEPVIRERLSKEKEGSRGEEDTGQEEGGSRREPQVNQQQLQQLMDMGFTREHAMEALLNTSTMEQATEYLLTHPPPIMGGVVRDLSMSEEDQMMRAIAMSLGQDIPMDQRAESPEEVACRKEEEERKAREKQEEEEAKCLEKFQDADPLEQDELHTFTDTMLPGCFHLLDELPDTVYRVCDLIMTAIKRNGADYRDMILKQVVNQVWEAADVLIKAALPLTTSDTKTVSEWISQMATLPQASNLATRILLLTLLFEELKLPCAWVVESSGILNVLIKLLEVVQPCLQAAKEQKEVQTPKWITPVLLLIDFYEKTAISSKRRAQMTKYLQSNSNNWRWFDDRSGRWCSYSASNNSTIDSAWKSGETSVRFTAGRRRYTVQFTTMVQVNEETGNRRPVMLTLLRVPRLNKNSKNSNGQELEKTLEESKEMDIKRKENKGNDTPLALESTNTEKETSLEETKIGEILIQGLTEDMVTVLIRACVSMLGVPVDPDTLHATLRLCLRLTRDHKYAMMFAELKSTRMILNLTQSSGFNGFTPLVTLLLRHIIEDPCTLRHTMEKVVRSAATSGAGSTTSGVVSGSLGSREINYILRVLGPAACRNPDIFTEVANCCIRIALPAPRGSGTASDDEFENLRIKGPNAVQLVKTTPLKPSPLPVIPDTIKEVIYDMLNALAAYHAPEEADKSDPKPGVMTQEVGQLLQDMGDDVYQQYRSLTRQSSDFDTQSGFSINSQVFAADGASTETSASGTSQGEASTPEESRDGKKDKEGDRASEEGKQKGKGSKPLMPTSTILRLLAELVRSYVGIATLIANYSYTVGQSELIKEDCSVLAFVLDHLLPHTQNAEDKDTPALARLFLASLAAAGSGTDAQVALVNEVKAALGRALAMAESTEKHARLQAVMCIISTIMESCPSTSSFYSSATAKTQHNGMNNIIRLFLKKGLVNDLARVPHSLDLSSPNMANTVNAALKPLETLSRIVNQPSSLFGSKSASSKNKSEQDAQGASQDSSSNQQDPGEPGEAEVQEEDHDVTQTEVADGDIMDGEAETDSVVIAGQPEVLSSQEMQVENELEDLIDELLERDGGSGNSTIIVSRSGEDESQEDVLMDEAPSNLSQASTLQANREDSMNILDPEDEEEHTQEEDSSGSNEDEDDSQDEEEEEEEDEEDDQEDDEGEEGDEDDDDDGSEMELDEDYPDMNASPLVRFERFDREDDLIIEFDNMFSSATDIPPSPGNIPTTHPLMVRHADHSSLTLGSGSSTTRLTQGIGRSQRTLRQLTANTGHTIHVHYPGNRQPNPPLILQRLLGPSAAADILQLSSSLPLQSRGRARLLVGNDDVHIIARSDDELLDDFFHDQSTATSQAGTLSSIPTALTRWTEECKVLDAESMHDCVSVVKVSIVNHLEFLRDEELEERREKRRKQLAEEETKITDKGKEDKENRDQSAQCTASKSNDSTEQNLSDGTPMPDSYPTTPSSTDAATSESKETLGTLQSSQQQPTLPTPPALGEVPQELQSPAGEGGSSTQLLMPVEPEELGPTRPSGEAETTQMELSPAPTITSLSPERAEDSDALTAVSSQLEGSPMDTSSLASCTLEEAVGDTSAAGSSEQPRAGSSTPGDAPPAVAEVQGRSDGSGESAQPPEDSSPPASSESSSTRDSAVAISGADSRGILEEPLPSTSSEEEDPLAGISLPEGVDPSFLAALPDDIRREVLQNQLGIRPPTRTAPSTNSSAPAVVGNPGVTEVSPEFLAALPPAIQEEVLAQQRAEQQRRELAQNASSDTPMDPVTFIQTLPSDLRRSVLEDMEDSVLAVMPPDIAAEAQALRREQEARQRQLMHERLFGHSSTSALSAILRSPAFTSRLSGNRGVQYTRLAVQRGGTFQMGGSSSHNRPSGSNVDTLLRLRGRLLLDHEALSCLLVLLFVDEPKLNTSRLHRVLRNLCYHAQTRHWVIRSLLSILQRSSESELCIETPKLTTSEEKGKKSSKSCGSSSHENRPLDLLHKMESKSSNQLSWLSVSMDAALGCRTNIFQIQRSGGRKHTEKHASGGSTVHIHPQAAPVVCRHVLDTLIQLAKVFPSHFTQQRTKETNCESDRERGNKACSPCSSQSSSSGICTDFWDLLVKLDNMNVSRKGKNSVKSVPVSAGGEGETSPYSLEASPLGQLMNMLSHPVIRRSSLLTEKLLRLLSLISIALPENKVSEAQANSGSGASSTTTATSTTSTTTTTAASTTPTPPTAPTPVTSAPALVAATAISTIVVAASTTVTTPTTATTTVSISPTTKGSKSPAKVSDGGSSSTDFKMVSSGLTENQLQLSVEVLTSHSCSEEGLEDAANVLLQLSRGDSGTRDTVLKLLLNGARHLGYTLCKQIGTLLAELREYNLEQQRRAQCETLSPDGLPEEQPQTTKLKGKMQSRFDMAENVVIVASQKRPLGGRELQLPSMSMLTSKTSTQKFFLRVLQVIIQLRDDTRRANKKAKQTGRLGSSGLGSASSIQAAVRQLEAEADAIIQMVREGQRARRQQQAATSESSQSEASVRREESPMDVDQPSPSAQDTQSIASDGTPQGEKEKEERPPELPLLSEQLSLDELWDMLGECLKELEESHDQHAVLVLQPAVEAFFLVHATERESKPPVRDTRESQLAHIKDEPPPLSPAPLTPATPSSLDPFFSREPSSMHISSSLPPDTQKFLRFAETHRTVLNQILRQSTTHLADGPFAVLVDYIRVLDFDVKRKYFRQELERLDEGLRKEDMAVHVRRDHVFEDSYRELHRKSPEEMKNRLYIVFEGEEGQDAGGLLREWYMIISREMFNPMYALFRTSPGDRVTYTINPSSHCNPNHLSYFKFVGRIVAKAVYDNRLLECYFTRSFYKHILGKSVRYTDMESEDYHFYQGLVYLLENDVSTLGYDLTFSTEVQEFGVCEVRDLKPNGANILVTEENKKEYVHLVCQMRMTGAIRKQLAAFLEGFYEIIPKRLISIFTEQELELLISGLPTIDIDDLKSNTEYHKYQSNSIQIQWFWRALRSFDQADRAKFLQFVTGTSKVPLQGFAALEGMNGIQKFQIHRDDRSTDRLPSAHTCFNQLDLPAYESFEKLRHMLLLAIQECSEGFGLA
T1 sequence (P46934 984-1318 limits assumed, species assumed): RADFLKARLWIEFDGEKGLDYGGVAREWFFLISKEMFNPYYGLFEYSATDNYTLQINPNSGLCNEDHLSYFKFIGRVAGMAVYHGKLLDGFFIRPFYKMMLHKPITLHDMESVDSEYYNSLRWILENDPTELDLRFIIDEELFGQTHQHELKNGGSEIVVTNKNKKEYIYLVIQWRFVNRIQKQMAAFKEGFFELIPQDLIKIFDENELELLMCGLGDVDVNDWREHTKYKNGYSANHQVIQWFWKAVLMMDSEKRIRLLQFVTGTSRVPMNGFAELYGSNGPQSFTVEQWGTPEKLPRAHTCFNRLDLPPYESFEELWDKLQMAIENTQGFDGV
Method for NEDD4: Briefly, the HECT-domain of HUWE1 was biotin-tagged, attached to streptavidin-coated 96-well plates, and incubated with UBA1, UbcH5b, a ubiquitin-conjugating enzyme that supports HUWE1 activity in vitro (Adhikary et al, [2005]), ATP, and MYC-tagged ubiquitin. Auto-ubiquitination was detected using a europium-labeled MYC antibody and appropriate detection reagents (Fig3A). […] These assays were used to analyze the specificity of the identified inhibitors.

Regarding `Cc1c(C(=O)Nc2ccc(CN)cc2)ncnc1N1CCC(C#N)(c2ccccc2)CC1` [BI8622], the IC50 (commonly the concentration needed to halve the response being measured) was above 50 µM at NEDD4 and 6.8 µM at HUWE1.

The values above are taken from article PMC4287973, “Tumor cell-specific inhibition of MYC function using small molecule inhibitors of the HUWE1 ubiquitin ligase” (EMBO Molecular Medicine, 2014).
